# Target: T1, human melanocortin receptor 4 (MC4R) (Homo sapiens, UniProt P32245)
# T1 construct: expressed in transfected cells; grown with 200 ug/ml Geneticin
# Assay: Luciferase assay
# Type: cell-based
# Conditions: agonistic activity at MC4R (Table 18); patent does not state whether luciferase or cAMP assay
# Method: Cell lines expressing human melanocortin receptor 4 (MC4R) were dissociated from tissue culture dishes by rinsing with Ca^++, Mg^++ free DPBS, treated with 1× Trypsin/EDTA solution for 1 min at 37° C., and resuspended with DMRM (GIBCO-BRL) supplemented with 10% FBS. The cells were counted and diluted with DMEM supplemented with 10% FBS and 200 ug/ml of Geneticin to […]. 90 ul of cell suspension was plated onto each well of 96-well black and clear bottom culture plates (Costar). After the incubation for 24 h in the atmosphere of 6% CO2 at 37° C., 10 ul of NDP-MSH and test compounds diluted in DMSO were added to each well. The final DMSO concentration was 1%. After 4 h of incubation in the atmosphere of 6% CO2 at 37° C., 50 ul of Bright-Glo (Promega) was added to each well. Luciferase activity was measured by using L-Max luminometer (Molecular Device). The amount of luciferase activity induced by treatment with NDP-MSH was defined as 100% to obtain the relative efficacy of test compounds. The EC0.5 MSH was defined as the concentration of test compounds that results in half maximal activity of NDP-MSH. The EC50 was defined as the concentration of test compound that results in half maximal activity of its own.
# T1 sequence (P32245 whole entry): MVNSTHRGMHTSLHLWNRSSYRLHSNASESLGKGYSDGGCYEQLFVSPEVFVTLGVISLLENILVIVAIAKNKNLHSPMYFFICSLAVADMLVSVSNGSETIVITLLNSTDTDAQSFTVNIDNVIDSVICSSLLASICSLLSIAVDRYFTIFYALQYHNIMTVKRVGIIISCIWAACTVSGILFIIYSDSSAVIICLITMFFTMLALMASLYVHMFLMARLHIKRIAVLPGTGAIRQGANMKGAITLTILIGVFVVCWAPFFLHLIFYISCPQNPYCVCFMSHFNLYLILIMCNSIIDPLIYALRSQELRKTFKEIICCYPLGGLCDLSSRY
row,EC50 [nM],Structure (SMILES)
1,16,"CC1(C)CCC(N(C(=O)C(C)(C)C)[C@H]2C[C@@H](CO)N(C(=O)[C@@H]3CN(C(C)(C)C)C[C@H]3c3ccc(Cl)cc3)C2)CC1 [Example B4, N-[(3S,5S)-1-{[(3S,4R)-1-tert-butyl-4-(4-chlorophenyl)pyrrolidine-3-yl]carbonyl}-5-(hydroxymethyl)pyrrolidine-3-yl]-N-(4,4-dimethylcyclohexyl)-2,2-dimethylpropaneamide]"
2,45,CC1(C)CCC(N(C(=O)C(C)(C)C)[C@H]2CCN(C(=O)[C@@H]3CN(C(N)=O)C[C@H]3c3ccc(Cl)cc3)C2)CC1 [Example E2-3]
3,24,"CCNC(=O)[C@@H]1C[C@H](N(C(=O)C(C)(C)C)C2CCC(F)(F)CC2)CN1C(=O)[C@@H]1CN(C(C)(C)C)C[C@H]1c1ccc(Cl)cc1 [Example A6, (4S)-1-{[(3S,4R)-1-tert-butyl-4-(4-chlorophenyl)pyrrolidine-3-yl]carbonyl}-4-[(4,4-difluorocyclohexyl)(2,2-dimethylpropanoyl)amino]-N-ethyl-L-prolineamide]"
4,66,"CCN(C)C(=O)[C@@H]1C[C@H](N(C(=O)C(C)(C)CS)C2CCC(C)(C)CC2)CN1C(=O)[C@@H]1CN(C(C)(C)C)C[C@H]1c1ccc(F)cc1F [Example C14, (4S)-1-{[(3S,4R)-1-tert-butyl-4-(2,4-difluorophenyl)pyrrolidine-3-yl]carbonyl}-4-[(4,4-dimethylcyclohexyl)(3-mercapto-2,2-dimethylpropanoyl)amino]-N-ethyl-N-methyl-L-prolineamide]"
